Data reported in ChEMBL document CHEMBL1201862, “PubChem BioAssay data set” (2004).
Activity calls are given as the source filed them.

Experiments:
HEK293 [1] = assay: Fluorescence-based counterscreen for potentiators or agonists of NPY-Y2: cell-based high-throughput dose response assay to identify inhibitors of cyclic nucleotide gated ion channel (CNGC) activity. In this assay, the parental HEK293 cell line transfected with a cyclic-nucleotide gated ion channel (CNGC)-based cAMP sensor is used to measure inhibition of isoproterenol-induced CNGC activity by test compound.; type: functional; conditions: Homo sapiens
[2] = target: T1, Neuropeptide Y receptor type 2 (Homo sapiens, UniProt P49146); assay: Fluorescence-based cell-based high-throughput dose response assay for agonists of NPY-Y2. [Related pubchem assays: 1703 (Screening assay (CNGC inhibitors).), 1359 (Screening assay (NPY-Y2 potentiators or agonists).), 1304 (Screening assay (NPY-Y1 potentiators or agonists).), 1710 (Screening assay (NPY-Y2 agonists).), 1791 (Summary AID.)]; type: functional
T1 sequence (P49146 whole entry): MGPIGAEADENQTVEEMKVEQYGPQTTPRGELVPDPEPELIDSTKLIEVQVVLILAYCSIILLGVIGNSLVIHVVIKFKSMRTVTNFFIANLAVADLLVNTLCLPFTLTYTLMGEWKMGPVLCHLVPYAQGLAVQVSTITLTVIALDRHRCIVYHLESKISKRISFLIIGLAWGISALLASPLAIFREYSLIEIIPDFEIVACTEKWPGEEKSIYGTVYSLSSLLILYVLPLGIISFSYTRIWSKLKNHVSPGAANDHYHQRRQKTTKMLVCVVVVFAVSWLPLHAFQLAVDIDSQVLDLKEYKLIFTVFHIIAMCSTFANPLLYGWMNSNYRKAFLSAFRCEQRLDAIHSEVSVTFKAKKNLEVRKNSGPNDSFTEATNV

[3] = target: T2, Neuropeptide Y receptor type 1 (Homo sapiens, UniProt P25929); assay: Fluorescence-based counterscreen for agonists of NPY-Y2: cell-based high-throughput dose response assay for agonists of NPY-Y1.; type: functional
T2 sequence (P25929 whole entry): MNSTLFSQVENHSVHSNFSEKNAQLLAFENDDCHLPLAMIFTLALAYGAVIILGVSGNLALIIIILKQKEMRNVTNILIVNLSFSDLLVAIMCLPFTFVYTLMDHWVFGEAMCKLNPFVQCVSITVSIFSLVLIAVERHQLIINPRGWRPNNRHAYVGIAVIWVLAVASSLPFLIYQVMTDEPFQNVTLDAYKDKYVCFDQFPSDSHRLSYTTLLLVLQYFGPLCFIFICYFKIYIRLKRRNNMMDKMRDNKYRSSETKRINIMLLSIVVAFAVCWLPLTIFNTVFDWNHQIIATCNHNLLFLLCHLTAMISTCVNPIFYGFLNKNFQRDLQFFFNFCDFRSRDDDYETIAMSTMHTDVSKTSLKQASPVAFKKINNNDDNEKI

[4] = luciferase reporter signal suppression in cells – H4 neuroglioma cells, luminescence, dose response (AID 1990); type: functional, cell-based
[5] = target: Luciferin 4-monooxygenase (Photinus pyralis, UniProt P08659); assay: Counter Screen for Luciferase-based Assay Positives. [Related pubchem assays: 620, 618, 411 ]
Sequence of Luciferin 4-monooxygenase (P08659 whole entry): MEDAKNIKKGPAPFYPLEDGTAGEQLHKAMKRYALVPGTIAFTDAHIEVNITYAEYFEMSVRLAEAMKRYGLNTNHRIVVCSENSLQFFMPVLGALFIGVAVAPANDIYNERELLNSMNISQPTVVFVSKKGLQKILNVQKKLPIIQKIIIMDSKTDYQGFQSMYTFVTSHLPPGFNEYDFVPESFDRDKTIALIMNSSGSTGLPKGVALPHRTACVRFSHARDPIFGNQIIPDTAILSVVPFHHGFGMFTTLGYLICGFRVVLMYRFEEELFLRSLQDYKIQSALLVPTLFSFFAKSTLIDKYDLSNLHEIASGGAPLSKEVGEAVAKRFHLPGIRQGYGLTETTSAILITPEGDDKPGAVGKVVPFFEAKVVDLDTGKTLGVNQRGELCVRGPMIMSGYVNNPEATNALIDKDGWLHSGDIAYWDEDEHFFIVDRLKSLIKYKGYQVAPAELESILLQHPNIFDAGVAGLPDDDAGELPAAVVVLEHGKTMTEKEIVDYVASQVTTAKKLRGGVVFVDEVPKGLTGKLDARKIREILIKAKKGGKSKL

[6] = Luminescence Cell-Based Dose Response HTS to Identify Inhibitors of 5'UTR Stem-Loop Driven Prion Protein mRNA Translation in H4 Neuroglioblastoma Cells. [Related pubchem assays: 1827 (Project Summary), 1813 (Primary HTS)]; type: functional
[7] = alpha-synuclein stem-loop luciferase translation blockers – H4 neuroglioma cells, luminescence, confirmation (AID 1988); type: functional, cell-based
HT-1080 = assay: HT1080 cell viability loss – fluorescence readout (AID 620); type: functional, cell-based; conditions: Homo sapiens
[8] = target: T3, Ubiquitin-conjugating enzyme E2 N (Homo sapiens, UniProt P61088); type: functional;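 also: Dose-response confirmation in a TR-FRET assay detecting UBC13-driven polyubiquitin chain formation, inhibition measured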
T3 sequence (P61088 whole entry): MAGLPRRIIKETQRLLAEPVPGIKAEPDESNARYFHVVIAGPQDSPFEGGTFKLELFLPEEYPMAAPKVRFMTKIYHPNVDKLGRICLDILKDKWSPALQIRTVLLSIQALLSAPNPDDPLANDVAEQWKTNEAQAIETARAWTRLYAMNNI

HEK293 [9] = assay: EBV LMP1 TES2 canonical NF-kB signalling blockers – cell-based, HEK293, luciferase, cherry-pick, dose response (AID 588343); type: functional; conditions: Homo sapiens
[10] = target: Glyceraldehyde-3-phosphate dehydrogenase (Homo sapiens, UniProt P04406)
Sequence of Glyceraldehyde-3-phosphate dehydrogenase (P04406 whole entry): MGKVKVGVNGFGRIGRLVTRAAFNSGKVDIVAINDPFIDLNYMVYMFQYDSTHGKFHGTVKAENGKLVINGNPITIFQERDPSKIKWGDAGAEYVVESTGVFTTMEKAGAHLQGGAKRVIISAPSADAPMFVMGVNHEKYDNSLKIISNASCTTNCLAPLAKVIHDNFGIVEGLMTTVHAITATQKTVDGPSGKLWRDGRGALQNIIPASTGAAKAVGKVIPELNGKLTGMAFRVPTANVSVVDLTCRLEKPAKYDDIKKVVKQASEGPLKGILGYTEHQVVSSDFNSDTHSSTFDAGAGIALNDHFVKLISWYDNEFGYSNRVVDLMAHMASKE

[11] = target: Peroxisome proliferator-activated receptor gamma/Nuclear receptor coactivator 2 (Homo sapiens, UniProt P37231); type: functional;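 also: agonist potency for raising coactivator recruitment to the receptor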
Sequence of Peroxisome proliferator-activated receptor gamma/Nuclear receptor coactivator 2 (P37231 whole entry): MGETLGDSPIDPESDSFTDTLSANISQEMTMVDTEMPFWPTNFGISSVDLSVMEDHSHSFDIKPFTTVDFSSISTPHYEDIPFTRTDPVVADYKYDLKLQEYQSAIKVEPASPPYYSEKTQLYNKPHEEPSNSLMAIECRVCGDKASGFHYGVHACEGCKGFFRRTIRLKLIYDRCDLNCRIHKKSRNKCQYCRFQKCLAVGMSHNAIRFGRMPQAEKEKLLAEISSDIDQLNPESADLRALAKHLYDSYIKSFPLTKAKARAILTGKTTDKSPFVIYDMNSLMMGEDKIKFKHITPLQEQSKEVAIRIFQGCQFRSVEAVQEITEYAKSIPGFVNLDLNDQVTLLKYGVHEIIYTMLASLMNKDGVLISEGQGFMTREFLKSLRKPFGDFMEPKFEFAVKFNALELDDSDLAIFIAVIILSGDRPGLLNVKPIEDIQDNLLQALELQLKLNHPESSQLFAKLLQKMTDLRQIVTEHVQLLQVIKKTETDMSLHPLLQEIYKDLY
Sequence of Peroxisome proliferator-activated receptor gamma/Nuclear receptor coactivator 2 (Q15596 whole entry, further chain): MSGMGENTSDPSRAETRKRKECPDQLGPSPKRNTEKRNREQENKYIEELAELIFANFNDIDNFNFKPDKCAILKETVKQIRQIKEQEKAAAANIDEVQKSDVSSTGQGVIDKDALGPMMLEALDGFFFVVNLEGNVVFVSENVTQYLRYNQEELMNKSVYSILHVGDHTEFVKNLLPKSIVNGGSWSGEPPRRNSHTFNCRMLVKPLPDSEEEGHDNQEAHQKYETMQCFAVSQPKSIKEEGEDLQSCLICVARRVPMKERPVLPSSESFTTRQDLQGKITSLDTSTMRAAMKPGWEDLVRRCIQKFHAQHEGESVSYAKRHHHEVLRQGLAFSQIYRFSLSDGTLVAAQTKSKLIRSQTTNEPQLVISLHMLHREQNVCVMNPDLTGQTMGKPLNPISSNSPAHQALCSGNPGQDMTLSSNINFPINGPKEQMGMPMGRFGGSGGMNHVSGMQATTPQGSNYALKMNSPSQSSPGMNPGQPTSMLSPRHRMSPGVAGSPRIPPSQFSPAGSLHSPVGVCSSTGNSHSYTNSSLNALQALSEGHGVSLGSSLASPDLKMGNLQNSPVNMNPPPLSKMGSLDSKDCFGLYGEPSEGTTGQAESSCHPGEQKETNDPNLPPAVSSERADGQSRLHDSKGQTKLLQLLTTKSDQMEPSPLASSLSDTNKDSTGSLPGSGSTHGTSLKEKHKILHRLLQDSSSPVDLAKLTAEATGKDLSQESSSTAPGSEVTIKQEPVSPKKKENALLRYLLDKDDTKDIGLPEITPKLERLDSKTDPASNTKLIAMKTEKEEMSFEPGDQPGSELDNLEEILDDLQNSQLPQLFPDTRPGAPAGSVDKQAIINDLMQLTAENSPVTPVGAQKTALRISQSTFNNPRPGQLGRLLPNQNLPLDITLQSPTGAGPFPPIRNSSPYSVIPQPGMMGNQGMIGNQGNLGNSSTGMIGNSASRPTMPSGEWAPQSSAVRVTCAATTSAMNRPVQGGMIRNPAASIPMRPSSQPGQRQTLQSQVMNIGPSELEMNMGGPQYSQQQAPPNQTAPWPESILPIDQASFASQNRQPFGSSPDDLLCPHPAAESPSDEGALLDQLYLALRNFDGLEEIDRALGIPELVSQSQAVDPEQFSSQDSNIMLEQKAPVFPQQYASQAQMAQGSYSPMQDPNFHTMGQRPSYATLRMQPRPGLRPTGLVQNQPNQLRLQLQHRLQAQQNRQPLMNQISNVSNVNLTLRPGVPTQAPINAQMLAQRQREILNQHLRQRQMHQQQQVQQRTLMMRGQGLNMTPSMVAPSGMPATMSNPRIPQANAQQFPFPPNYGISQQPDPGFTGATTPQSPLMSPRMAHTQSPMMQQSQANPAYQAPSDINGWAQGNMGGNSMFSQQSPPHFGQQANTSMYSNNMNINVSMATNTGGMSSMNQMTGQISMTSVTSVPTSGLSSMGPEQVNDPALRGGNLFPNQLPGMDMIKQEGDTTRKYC

[12] = target: Peroxisome proliferator-activated receptor gamma/Nuclear receptor coactivator 1 (Homo sapiens, UniProt P37231); type: functional;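 also: agonist potency as compounds enhance coactivator SRC-1 recruitment to PPARgamma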
Sequence of Peroxisome proliferator-activated receptor gamma/Nuclear receptor coactivator 1 (P37231 whole entry): as the sequence (P37231 whole entry) above
Sequence of Peroxisome proliferator-activated receptor gamma/Nuclear receptor coactivator 1 (Q15788 whole entry, further chain): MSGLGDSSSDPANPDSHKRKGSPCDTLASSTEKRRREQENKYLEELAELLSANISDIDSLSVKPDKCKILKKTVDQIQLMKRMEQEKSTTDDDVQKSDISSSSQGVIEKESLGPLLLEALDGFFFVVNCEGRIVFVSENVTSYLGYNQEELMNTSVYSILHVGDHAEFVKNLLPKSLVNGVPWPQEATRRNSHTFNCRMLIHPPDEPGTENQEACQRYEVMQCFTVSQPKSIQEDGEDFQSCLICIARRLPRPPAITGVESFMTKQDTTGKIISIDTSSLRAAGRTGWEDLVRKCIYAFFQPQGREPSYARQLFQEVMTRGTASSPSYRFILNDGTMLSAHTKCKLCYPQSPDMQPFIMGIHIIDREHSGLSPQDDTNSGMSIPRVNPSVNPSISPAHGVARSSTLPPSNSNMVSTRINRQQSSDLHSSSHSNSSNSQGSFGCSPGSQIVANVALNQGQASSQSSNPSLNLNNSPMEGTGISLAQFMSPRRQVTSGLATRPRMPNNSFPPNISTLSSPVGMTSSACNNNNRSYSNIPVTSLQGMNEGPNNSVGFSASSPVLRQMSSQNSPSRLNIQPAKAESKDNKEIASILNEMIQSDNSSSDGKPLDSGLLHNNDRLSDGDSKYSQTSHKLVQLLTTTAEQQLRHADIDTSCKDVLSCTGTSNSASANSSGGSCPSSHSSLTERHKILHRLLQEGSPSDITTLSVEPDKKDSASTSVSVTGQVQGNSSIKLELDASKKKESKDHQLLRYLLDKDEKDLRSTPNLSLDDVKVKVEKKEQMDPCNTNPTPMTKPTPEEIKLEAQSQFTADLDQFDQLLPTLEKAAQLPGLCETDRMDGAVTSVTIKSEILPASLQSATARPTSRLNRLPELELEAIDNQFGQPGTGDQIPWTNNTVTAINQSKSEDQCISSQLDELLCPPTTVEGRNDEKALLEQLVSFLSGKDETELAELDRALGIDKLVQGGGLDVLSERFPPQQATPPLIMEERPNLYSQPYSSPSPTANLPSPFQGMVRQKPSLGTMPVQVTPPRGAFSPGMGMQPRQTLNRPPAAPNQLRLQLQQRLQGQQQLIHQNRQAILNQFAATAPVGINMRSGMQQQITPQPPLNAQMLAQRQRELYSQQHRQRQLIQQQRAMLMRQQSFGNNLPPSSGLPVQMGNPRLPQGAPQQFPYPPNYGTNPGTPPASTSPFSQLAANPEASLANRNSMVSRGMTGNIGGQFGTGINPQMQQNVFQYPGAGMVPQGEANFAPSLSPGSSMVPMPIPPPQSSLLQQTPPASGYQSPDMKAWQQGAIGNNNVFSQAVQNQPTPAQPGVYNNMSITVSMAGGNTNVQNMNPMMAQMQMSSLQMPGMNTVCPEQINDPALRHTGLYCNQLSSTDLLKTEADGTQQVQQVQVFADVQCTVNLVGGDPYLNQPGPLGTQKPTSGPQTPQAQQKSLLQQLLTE

[13] = target: Peroxisome proliferator-activated receptor gamma/Nuclear receptor coactivator 3 (Homo sapiens, UniProt P37231); type: functional;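 also: agonist potency for raising coactivator recruitment to the receptor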
NS3 = NS3 (Hepatitis C virus, UniProt A3EZJ3); assay: PubChem AID 2173; design: species or system Hepacivirus hominis

Compound: CC(SC(=S)N1CCCC1)C(=O)O (stereo not drawn)
- EC50 (HEK293 [1]): > 35.4 µM (not active)
- EC50 [2]: > 35.4 µM (not active)
- EC50 [3]: > 35.4 µM (not active)

Compound: O=C(Nc1ccccc1Cl)c1c(F)c(F)c(F)c(F)c1F
- EC50 (HEK293 [1]): > 35.4 µM (not active)
- EC50 [2]: > 35.4 µM (not active)
- EC50 [3]: > 35.4 µM (not active)

Compound: COc1ccc(C(=O)Nn2c(SCC(=O)NCc3ccco3)nc3ccccc3c2=O)cc1
- EC50 [4]: 8.65 µM (inconclusive)
- EC50 [5]: 0.44 µM (active)
- EC50 [6]: 8.39 µM (active)
- EC50 [7]: 8.3 µM (active)
- EC50 (HT-1080): > 50 µM (not active)
- IC50 [8]: > 20 µM (inactive)
- AC50 (HEK293 [9]): 2.48 µM (active)

Compound: CCC(C(=O)Nc1ccc(O)c(C(=O)O)c1)c1ccccc1 (stereo not drawn)
- IC50 [10]: > 100 µM (not active)

Compound: COc1ccc(Br)cc1C(=O)N/N=C/c1ccc([N+](=O)[O-])cc1
- EC50 [11]: > 79.4 µM (not active)
- EC50 [12]: > 79.4 µM (not active)
- EC50 [13]: > 79.4 µM (not active)

Compound: O=C1/C(=C/C=C/C=C/Nc2ccccc2)SC(=S)N1Cc1ccccc1
- IC50 (NS3): 17.3 µM (not active)
